Assay results from patent publication US20240174679A1, “HETEROAROYL AMIDES AS LRRK2 INHIBITORS, PHARMACEUTICAL COMPOSITIONS, AND USES THEREOF” (MERCK SHARP & DOHME LLC, priority 2021, published 2024).

Biological target: GST tagged truncated human mutant G2019S LRRK2 (Homo sapiens (Human), UniProt Q5S007, G2019S)
Experiment: LRRK2 Km ATP LanthaScreen Assay
Assay type: biochemical
Conditions: 134 μM ATP (Km ATP), LRRKtide substrate, negative log of mean IC50 (molar)
Description: Unless otherwise noted, all reactions are magnetically stirred. Unless otherwise noted, when diethyl ether is used in the experiments described below, it is Fisher ACS certified material and is stabilized with BHT. Unless otherwise noted, “concentrated” and/or “solvent removed under reduced pressure” means evaporating the solvent from a solution or mixture using a rotary evaporator or vacuum pump. Unless otherwise noted, flash chromatography is carried out on a Teledyne Isco (Lincoln, NE), Analogix (Burlington, WI), or Biotage (Stockholm, SWE) automated chromatography system using a commercially available cartridge as the column. Columns may be purchased from Teledyne Isco, Analogix, Biotage, Varian (Palo Alto, CA), or Supelco (Bellefonte, PA) and are usually filled with silica gel as the stationary phase. Reversed phase preparative HPLC conditions, where used, can be found at the end of each experimental section. Aqueous solutions were concentrated on a Genevac (Ipswich, ENG) or by freeze-drying/lyophilization. Unless otherwise noted, all LRRK2 pIC50 data presented in tables refers to the LRRK2 G2019S Km ATP LanthaScreen™ assay (Life Technologies Corp., Carlsbad, CA) that is described in the Biological Assay section.
Biological Assay: LRRK2 Km ATP LanthaScreen™ Assay
Compound potency against LRRK2 kinase activity was determined using LanthaScreen™ technology from Life Technologies Corporation (Carlsbad, CA) using a GST20 tagged truncated human mutant G2019S LRRK2 in the presence of the fluorescein-labeled peptide substrate LRRKtide® (LRRK2 phosphorylated ezrin/radixin/moesin (ERM)), also from Life Technologies. The data presented for the Km ATP LanthaScreen™ Assay represents mean IC50 values based on several test results and may have reasonable deviations depending on the specific conditions and reagents used. Km is the Michaelis constant of an enzyme and is defined as the concentration of native substrate (ATP for a kinase) which permits the enzyme to achieve half Vmax (Vmax=rate of reaction when the enzyme is saturated with substrate). IC50 (half-maximal inhibitory concentration) represents the concentration of inhibitor required to inhibit LRRK2 kinase activity by 50%. Assays were performed in the presence of 134 μM ATP (Km ATP). Upon completion, the assay was stopped, and phosphorylated substrate detected with a terbium (Tb)-labeled anti-pERM antibody (cat. no. PV4898). The compound dose response was prepared by diluting a 10 mM stock of compound to a maximum concentration of 9.99 μM in 100% DMSO, followed by custom fold serial dilution in DMSO nine times. 20 nL of each dilution was spotted via a Labcyte Echo onto a 384-well black-sided plate (Corning 3575) followed by 15 μL of a 1.25 nM enzyme solution in 1× assay buffer (50 mM Tris pH 8.5, 10 mM MgCl2, 0.01% Brij-35, 1 mM EGTA, 2 mM dithiothreitol, 0.05 mM sodium orthovanadate). Following a 15-min incubation period at rt, the kinase reaction was started with the addition of 5 μL of 400 nM fluorescein-labeled LRRKtide® (LRRK2 phosphorylated ezrin/radixin/moesin (ERM)) peptide substrate and 134 μM ATP solution in 1× assay buffer. The reaction was allowed to progress at ambient temperature for 90 min. The reaction was then stopped by the addition of 20 μL of TR-FRET Dilution Buffer (Life Technologies, Carlsbad, CA) containing 2 nM Tb-labeled anti-phospho LRRKtide® (LRRK2 phosphorylated ezrin/radixin/moesin (ERM)) antibody and 10 mM EDTA (Life Technologies, Carlsbad, CA). After an incubation period of 1 h at rt, the plate was read on an EnVision® multimode plate reader (Perkin Elmer, Waltham, MA) with an excitation wavelength of 337 nm (Laser) and a reading emission at both 520 and 495 nm. Compound IC50 values were interpolated from nonlinear regression best-fits of the log of the final compound concentration, plotted as a function of the 520/495-nm emission ratio using activity base “Abase”). Abase uses a 4 parameter (4P) logistic fit based on the Levenberg-Marquardt algorithm. […]

Sequence of GST tagged truncated human mutant G2019S LRRK2 (Q5S007 970-2527 G2019S): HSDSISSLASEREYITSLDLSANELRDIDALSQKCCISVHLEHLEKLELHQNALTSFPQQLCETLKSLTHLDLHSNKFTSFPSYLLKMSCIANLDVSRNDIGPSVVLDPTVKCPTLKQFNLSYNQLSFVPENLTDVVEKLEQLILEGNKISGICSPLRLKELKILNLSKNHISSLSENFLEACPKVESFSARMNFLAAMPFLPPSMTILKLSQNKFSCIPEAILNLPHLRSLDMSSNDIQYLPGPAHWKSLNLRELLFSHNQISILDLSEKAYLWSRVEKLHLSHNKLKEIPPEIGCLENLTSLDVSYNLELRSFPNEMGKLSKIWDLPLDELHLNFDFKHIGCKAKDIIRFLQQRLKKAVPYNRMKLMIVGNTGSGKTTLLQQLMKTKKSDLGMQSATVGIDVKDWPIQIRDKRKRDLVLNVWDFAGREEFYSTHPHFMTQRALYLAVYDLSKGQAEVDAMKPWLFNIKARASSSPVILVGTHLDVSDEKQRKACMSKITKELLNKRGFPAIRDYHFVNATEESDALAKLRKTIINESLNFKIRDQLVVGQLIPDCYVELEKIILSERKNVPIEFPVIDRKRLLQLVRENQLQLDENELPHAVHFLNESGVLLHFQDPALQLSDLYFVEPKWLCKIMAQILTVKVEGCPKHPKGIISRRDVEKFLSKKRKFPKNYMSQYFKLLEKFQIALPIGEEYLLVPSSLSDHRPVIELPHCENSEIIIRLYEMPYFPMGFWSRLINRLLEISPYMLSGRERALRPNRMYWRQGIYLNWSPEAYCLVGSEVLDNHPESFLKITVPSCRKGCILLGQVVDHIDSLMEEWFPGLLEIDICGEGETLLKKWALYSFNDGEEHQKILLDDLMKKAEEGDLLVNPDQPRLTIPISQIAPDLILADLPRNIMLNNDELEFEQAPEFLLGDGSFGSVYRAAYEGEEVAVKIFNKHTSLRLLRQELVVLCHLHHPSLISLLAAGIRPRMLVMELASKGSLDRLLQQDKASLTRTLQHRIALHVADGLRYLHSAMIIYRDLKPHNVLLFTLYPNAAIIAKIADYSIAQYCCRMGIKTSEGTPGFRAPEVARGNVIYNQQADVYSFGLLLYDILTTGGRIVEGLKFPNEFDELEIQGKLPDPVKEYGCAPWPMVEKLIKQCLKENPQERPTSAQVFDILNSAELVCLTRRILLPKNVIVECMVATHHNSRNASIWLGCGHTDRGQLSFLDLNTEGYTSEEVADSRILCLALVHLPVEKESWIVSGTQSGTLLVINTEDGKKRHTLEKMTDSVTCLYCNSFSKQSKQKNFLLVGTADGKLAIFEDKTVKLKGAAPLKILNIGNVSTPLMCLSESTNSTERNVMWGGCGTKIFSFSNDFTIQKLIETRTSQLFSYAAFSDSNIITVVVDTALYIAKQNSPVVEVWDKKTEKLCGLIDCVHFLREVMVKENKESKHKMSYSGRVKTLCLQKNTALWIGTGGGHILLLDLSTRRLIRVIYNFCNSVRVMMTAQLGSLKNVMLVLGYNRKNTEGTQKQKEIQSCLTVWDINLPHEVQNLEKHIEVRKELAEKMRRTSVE

Compound | LRRK2 pIC50
O=C(Nc1cnn(Cc2ccncc2)c1)c1csc(-c2cn[nH]c2)n1 [Example 7-24, 2-(1H-pyrazol-4-yl)-N-[1-(pyridin-4-ylmethyl)-1H-pyrazol-4-yl]-1,3-thiazole-4-carboxamide] | 7.30
Cc1cc(-n2cc(NC(=O)c3csc(-c4cn[nH]c4)n3)cn2)cc(C)n1 [Example 8-4, N-[1-(2,6-dimethylpyridin-4-yl)-1H-pyrazol-4-yl]-2-(1H-pyrazol-4-yl)-1,3-thiazole-4-carboxamide] | 7.82
COc1nn(C2CC2)cc1NC(=O)c1csc(-c2cn[nH]c2)n1 [Example 1-37, N-(1-cyclopropyl-3-methoxy-1H-pyrazol-4-yl)-2-(1H-pyrazol-4-yl)-1,3-thiazole-4-carboxamide] | 7.51
COc1nn(CC2CC2)cc1NC(=O)c1csc(-c2cn[nH]c2)n1 [Example 7-14, N-[1-(cyclopropylmethyl)-3-methoxy-1H-pyrazol-4-yl]-2-(1H-pyrazol-4-yl)-1,3-thiazole-4-carboxamide] | 7.92
O=C(Nc1cnn(CC2CCC2)c1)c1cccc(-c2ccncc2)n1 [Example 9-16, N-[1-(cyclobutylmethyl)-1H-pyrazol-4-yl]-2,4′-bipyridine-6-carboxamide] | 5.04
O=C(Nc1cnn(C2CCC2)c1)c1coc(-c2ccccc2)n1 [Example 4-4, N-(1-cyclobutyl-1H-pyrazol-4-yl)-2-phenyl-1,3-oxazole-4-carboxamide] | 5.68
Cc1nn(C(C)C2CC2)cc1NC(=O)c1csc(-c2cn[nH]c2)n1 (single isomer, unassigned) [Example 2-3, (R)- or (S)-N-{1-[1-cyclopropylethyl]-3-methyl-1H-pyrazol-4-yl}-2-(1H-pyrazol-4-yl)-1,3-thiazole-4-carboxamide] | 6.99
O=C(Nc1cnn(CC2CCC2)c1)c1cccc(-c2cncnc2)n1 [Example 9-2, N-[1-(cyclobutylmethyl)-1H-pyrazol-4-yl]-6-pyrimidin-5-ylpyridine-2-carboxamide] | 5.74
O=C(Nc1cnn(CC2CCC2)c1)c1cccc(-c2cnn(Cc3ccccn3)c2)n1 [Example 9-8, N-[1-(cyclobutylmethyl)-1H-pyrazol-4-yl]-6-[1-(pyridin-2-ylmethyl)-1H-pyrazol-4-yl]pyridine-2-carboxamide] | 6.54
CC(C)c1cc(-n2cc(NC(=O)c3csc(-c4cn[nH]c4)n3)cn2)ccn1 [Example 8-3, N-{1-[2-(1-methylethyl)pyridin-4-yl]-1H-pyrazol-4-yl}-2-(1H-pyrazol-4-yl)-1,3-thiazole-4-carboxamide] | 7.89
COCC1(Cn2cc(NC(=O)c3csc(-c4cn[nH]c4)n3)cn2)CCC1 [Example 1-29, N-(1-{[1-(methoxymethyl)cyclobutyl]methyl}-1H-pyrazol-4-yl)-2-(1H-pyrazol-4-yl)-1,3-thiazole-4-carboxamide] | 7.82
CC(C1CC1)n1ncc(NC(=O)c2csc(-c3cn[nH]c3)n2)c1C(F)F (single isomer, unassigned) [Example 3-4, (R)- or (S)—N-(1-(1-cyclopropylethyl)-5-(difluoromethyl)-1H-pyrazol-4-yl)-2-(1H-pyrazol-4-yl)thiazole-4-carboxamide] | 5.69
Cn1cc(NC(=O)c2csc(-c3cn[nH]c3)n2)c(Oc2ccccc2)n1 [Example 1-30, N-(1-methyl-3-phenoxy-1H-pyrazol-4-yl)-2-(1H-pyrazol-4-yl)-1,3-thiazole-4-carboxamide] | 7.78
Cn1cc(-c2cccc(C(=O)Nc3cnn(C4CCC4)c3)c2F)cn1 [Example 9-38, N-(1-cyclobutyl-1H-pyrazol-4-yl)-2-fluoro-3-(1-methyl-1H-pyrazol-4-yl)benzamide] | 7.10
Cn1cc(-c2cccc(C(=O)Nc3cnn(CC4CCC4)c3)n2)cn1 [Example 9-25, N-[1-(cyclobutylmethyl)-1H-pyrazol-4-yl]-6-(1-methyl-1H-pyrazol-4-yl)pyridine-2-carboxamide] | 7.38
